#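 Growth conditions: 96-well plates. Treatment: test compound, 48 hours, 5 concentrations. Analysis: linear interpolation between bracketing concentrations; unreached endpoints set to highest concentration. TGI denotes the concentration required for complete inhibition of growth.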
# Tests used:
# Test in all cases: NCI-60 cell line screen, 48 h
# [1] = system: ACHN renal
# [2] = system: HT29 colon
# [3] = system: IGROV1 ovarian
# [4] = system: LOX IMVI melanoma
# [5] = system: MALME-3M melanoma
# [6] = system: MOLT-4 leukemia
# [7] = system: SK-OV-3 ovarian
# [8] = system: TK-10 renal
SMILES,TGI [1] [µM],TGI [2] [µM],TGI [3] [µM],TGI [4] [µM],TGI [5] [µM],TGI [6] [µM],TGI [7] [µM],TGI [8] [µM]
NC(=O)CN1C=CCC(C(N)=O)=C1,> 100,> 100,> 100,> 100,> 100,> 100,> 100,–
Cc1c([C@H](C)[C@@H]2NC[C@@H](C)C[C@H]2O)ccc2c1C[C@H]1[C@H]2CC=C2C[C@@H](O)CC[C@@]21C,37.6,42,43.9,27,36.5,37.4,76.9,67.3
CC(C)(C)OC(=O)c1ccc(NCC2=C(Br)C(=O)C=CC2=O)cc1,33.6,33.9,> 66.9,31.4,30.6,45.7,> 100,48.2
Cc1nc(Nc2ccccc2Cl)sc1C(=O)CC(=O)C(N)=O,> 100,> 100,> 100,> 100,–,> 100,> 100,> 100
COC1=CC(=O)N(C)C(O)C1(C#N)OC1OC(CO)C(O)C(O)C1O (configuration not stated),> 100,> 10,> 100,> 100,–,> 100,> 100,> 100
COc1ccccc1NC(=O)CC(=O)NN,> 100,> 100,> 100,> 100,> 100,> 100,> 100,> 100
CCNc1cc2c3c(c1)CCN3CCC2,> 10,> 10,> 10,> 10,> 10,> 10,> 10,> 10
C=C1CC(C)(c2cccc(Nc3nc4ccccc4c4occc34)c2)OC1=O (configuration not stated),19.6,16.6,–,–,39.1,> 100,27.2,9.99
O=c1[nH]nc(Cc2ccc(Cl)cc2)n1/N=C/c1ccc([N+](=O)[O-])o1,11.4,> 41.1,11.2,> 24.8,3.31,> 26.6,> 36.3,18.5
Cc1ccccc1NC(=O)CC(=O)NNC(Sc1ccccc1)c1cc(N=Nc2ccc(Br)cc2)ccc1O (configuration not stated),> 10,> 10,> 10,9.11,> 10,3.1,> 10,> 10
CC1CCC2(OC1)OC1C(O)C3C4CCC5CC(OC6OC(CO)C(OC7OC(CO)C(O)C(OC8OCC(O)C(O)C8O)C7OC7OC(CO)C(O)C(OC8OC(CO)C(O)C(O)C8O)C7O)C(O)C6O)C(O)CC5(C)C4CCC3(C)C1C2C (configuration not stated),3.08,11.8,6.7,12.1,–,15.1,5.57,6.1
CCOC(=O)Nc1ccc(S(=O)(=O)Nn2cnnc2)cc1,> 100,59.9,> 100,> 100,> 100,> 100,> 100,> 100
COc1nc(C#CC2CCCCC2)nc(OC)n1,17.5,> 100,14,8.69,6.49,> 100,> 100,–
CC(CNC(N)=O)NC(N)=O (configuration not stated),> 100,> 100,> 100,> 100,> 100,> 100,> 100,> 100
COc1cc(N(CCC#N)CCC#N)ccc1/C=N\NC(=O)c1ccc(C)cc1,> 100,> 100,> 100,> 100,> 100,> 100,> 100,> 100
Cc1ncc(COP(=O)(O)O)c(/C=C2\SC(=S)NC2=O)c1O,> 100,> 100,> 100,> 100,> 100,> 100,> 100,> 100
COC(NC(=O)Nc1ccccc1C)(C(F)(F)F)C(F)(F)F,> 100,> 100,> 100,> 100,–,> 100,> 100,> 100
CC(=O)C(C)(C)CCC(C)(C)C(C)=O,> 100,> 100,> 100,> 100,> 100,> 100,> 100,> 100
C#CCOC(=O)c1ccc(OC(C)=O)cc1,> 100,–,> 100,> 100,–,> 100,> 100,> 100
CCCCCCCCC#CCCCCCCCCCC[C@@H]1C(=O)O[C@H](C)[C@@H]1O (tested in a mixture with another compound),45.2,–,32.7,28.8,44,33.5,> 100,40.8

SMILES,TGI [1] [µM],TGI [2] [µM],TGI [3] [µM],TGI [4] [µM],TGI [5] [µM],TGI [6] [µM],TGI [7] [µM],TGI [8] [µM]
CC1=CCC[C@H]2[C@](C)(CC3=CC(=O)C(SCC(C)C)=CC3=O)[C@@H](C)CC[C@]12C,29.7,29.9,22.9,24.6,–,6.19,35.1,31.3
O=[N+]([O-])/C(C(Cl)=C(Cl)Cl)=C(/Nc1cccc2cccnc12)n1nnc2ccccc21,49.8,40.5,–,–,19.7,> 100,32.9,–
C[C@H](C1CC2(C)OC2(C)C(=O)O1)[C@H]1CC[C@H]2[C@@H]3[C@@H]4O[C@@H]4[C@@]4(O)CC=CC(=O)[C@]4(C)[C@H]3CC[C@]12C (some centres not stated),> 50,> 50,> 50,> 50,–,> 50,> 50,> 50
NC(=S)NC/C=C/Cl,> 100,> 100,> 100,> 100,> 100,> 100,> 100,> 100
O=C(O)c1cccc(NC(C(=O)c2ccccc2)c2ccccc2)c1 (configuration not stated),> 100,–,> 100,> 100,> 100,> 100,> 100,> 100
OC(NN=C1CCCC1)(C(F)(F)Cl)C(F)(F)Cl,> 10,> 10,> 10,> 10,> 10,> 10,> 10,> 10
CCN(CC)C(=O)Cn1c2c(c3ccccc31)CCCC2,> 100,> 100,> 100,> 100,> 100,–,> 100,> 100
COc1ccc2cc(C(C)C(=O)N3C(=O)OCC3(C)C)ccc2c1 (configuration not stated),> 100,> 100,> 100,> 100,> 100,> 100,> 100,> 100
CC(C)CCOC(=O)NC(Nc1ccc(F)cc1)(C(F)(F)F)C(F)(F)F,> 100,> 100,> 100,> 100,> 100,76.8,> 100,> 100
CC(C)(C)C1=C(Br)C(O)(C(C)(C)C)OP1(=O)c1ccccc1 (configuration not stated),> 100,> 100,> 100,> 100,> 100,> 100,> 100,> 100
Cn1c(=O)sc2cc(C(=S)N3CCCCC3)ccc21,> 100,> 100,> 100,> 100,55.4,> 100,> 100,> 100
Oc1ccc(-c2nc3ccccc3s2)cc1,> 100,> 100,> 100,45,> 100,> 100,86,–
Clc1ccc(C2=CCN3CC=C(c4ccc(Cl)cc4)C23)cc1,27,17.8,21.9,20.6,27.3,28,–,27.5
CCOC(=O)c1cc(Br)c(-c2onc(C)c2Br)[nH]1,–,> 100,> 100,> 100,> 100,> 100,74.4,–
CC(C)Oc1cccc(N2C(Nc3ccccc3)=Nc3ccncc3S2(=O)=O)c1,84.8,> 100,87.6,38.5,63.7,> 100,> 100,–
CCSC1=CC2(O)N(CCc3ccc(OC)c(OC)c3)C(=O)CC2(C(=O)OC)CC1=O (configuration not stated),> 100,32.9,33.6,37.3,–,90.8,> 100,37.5
O=C(O)/C=C\C(=O)Nn1c(Cc2ccc(Cl)cc2)n[nH]c1=O,–,> 100,> 100,–,> 100,> 100,> 100,> 100
O=C(O)c1ccccc1C1c2ccccc2Oc2ccccc21,> 100,> 100,> 100,> 100,> 100,> 100,–,> 100
O=C1/C(=C/c2cccc3ccccc23)CCc2ccc([N+](=O)[O-])cc21,> 100,–,> 100,> 100,> 100,> 100,77.8,> 100
S=C1SC(=Nc2ccccc2)C(=Nc2ccccc2)N1c1ccc2ccccc2c1,–,–,> 100,–,> 100,–,> 100,–
